The conditions of data set [1]: cited from earlier work.
Data set [2] can be described thus: Solubility of edaravone in solubility enhancing agents. In kind it is physicochemical. The text has this:
The table below, illustrates the best possible solubilizing agents that are utilized in the present invention.

For the compound `CC1=NN(c2ccccc2)C(=O)C1` [edaravone, 3-methy-1-phenyl-2-pyrazolin-5-one], the “oral bioavailability (Fabs)” value in data set [1] is listed as 5.23%. Further, the Solubility turned out to be 52.27 mg/gm in data set [2] (in Alcohol); 14.36 mg/gm in data set [2] (in CCMG 400 LQ (Mixture of caprylocaproyl polyoxylglycerides)); 15.8 mg/gm in data set [2] (in Capryol 90 (Propylene Glycol Monocaprylate)); 65.0 mg/gm in data set [2] (in Capryol 90 + Ethanol (50:50)); 7.9 mg/gm in data set [2] (in Castor Oil); 72.2 mg/gm in data set [2] (in Castor oil + Ethanol (50:50)). Moreover, the Solubility in data set [2] (in Cotton seed oil) came to 2.1 mg/gm; in data set [2] (in Imwitor 988 (Ester of caprylic acid and glycerol)), 13.59 mg/gm; in data set [2] (in Kollisolv MCT 70), 8.61 mg/gm; in data set [2] (in Labrafil M 1944 (Oleoyl polyoxyl-6 glycerides)) it was 6.9 mg/gm; in data set [2] (in Labrafil M 2125 (Linoleoyl Polyoxyl-6 glycerides)), 9.10 mg/gm; in data set [2] (in Labrasol ALF (Caprylocaproyl Polyoxyl-8 glycerides), edaravone dissolved per gram of agent), 25.1 mg/gm. Moreover, the Solubility is reported as 78.8 mg/gm in data set [2] (in Labrasol ALF + Ethanol (50:50)); 8.1 mg/gm in data set [2] (in Lauroglycol 90 (Propylene glycol monolaurate)); 11.26 mg/gm in data set [2] (in Miglyol 812 (Triester of caprylic and capric acid)); 26.4 mg/gm in data set [2] (in PEG 300 (polyethylene glycol)); 66.3 mg/gm in data set [2] (in PEG 300 + Ethanol (50:50)); 1.7 mg/gm in data set [2] (in Peanut oil). In addition, the Solubility was 37.6 mg/gm in data set [2] (in Peppermint Oil), 72.8 mg/gm in data set [2] (in Peppermint Oil + Ethanol (50:50)) and 17.7 mg/gm in data set [2] (in Polysorbate 20).

These data come from patent US12491178B2, “Stable pharmaceutical compositions of edaravone” (Slayback Pharma LLC, priority 2023, dated 2025).
